From patent US11649240B2, “Substituted 4-phenylpiperidines, their preparation and use” (The Trustees of Columbia University in the City of New York, priority 2014, dated 2023)
Where a name gives a salt, the structure may show the parent alone.

How the values were obtained:
serum RBP4 = serum RBP4 (Mus musculus (Mouse), UniProt Q00724); assay: Serum RBP4 levels in Abca4−/− mice; assay type: in vivo; conditions: 25 mg/kg for 12 weeks
Protocol: (§1) Abca4−/− mice have A2E levels in the ˜15-19 pmoles/eye range at 17 weeks old. Mice, starting at 17 weeks old, were treated with 25 mg/kg of Compound 81 for 12 weeks.

Abca4−/− mice = assay: Bisretinoid accumulation in eyes of Abca4−/− mice; assay type: in vivo, mouse; conditions: Abca4−/− mice starting at 17 weeks old, 25 mg/kg for 12 weeks
Protocol: as §1

serum RBP4 and retinol = conditions: in vivo; cited from earlier work
RBP4-TTR interaction = conditions: cited from earlier work

Structure (SMILES) | serum RBP4 reduction in treated mice (serum RBP4; present-tense example) | bisretinoid accumulation in Abca4−/− mouse model (Abca4−/− mice; present-tense example) | further results
O=C(c1n[nH]c2c1CNCC2)N1CCC(c2cccc(F)c2Cl)CC1 [Compound 42, (4-(2-Chloro-3-fluorophenyl)piperidin-1-yl)(4,5,6,7-tetrahydro-1H-pyrazolo[4,3-c]pyridin-3-yl)methanone Hydrochloride] | significant serum RBP4 reduction | inhibit bisretinoid accumulation | –
CC1=C(/C=C/C(C)=C/C=C/C(C)=C/C(=O)Nc2ccc(O)cc2)C(C)(C)CCC1 [fenretinide, N-(4-hydroxy-phenyl)retinamide] | – | – | ocular all-trans retinol uptake and visual cycle (serum RBP4 and retinol): inhibit ocular all-trans retinol uptake and slow down the visual cycle; disruption of RBP4-TTR interaction (RBP4-TTR interaction): disrupt the RBP4-TTR interaction
CC(=O)N1CCc2c(C(=O)N3CCC(c4ccc(F)c(F)c4C(F)(F)F)CC3)n[nH]c2C1 [Compound 81, 1-(3-(4-(3,4-Difluoro-2-(trifluoromethyl)phenyl)piperidine-1-carbonyl)-4,5-dihydro-1H-pyrazolo[3,4-c]pyridin-6 (7H)-yl)ethanone] | – | – | serum RBP4 reduction in treated mice (serum RBP4): significant serum RBP4 reduction; bisretinoid accumulation in Abca4−/− mouse model (Abca4−/− mice): inhibited bisretinoid accumulation

Continued, in another order:

serum RBP4 reduction in treated mice (serum RBP4; present-tense example) | Structure (SMILES) | bisretinoid accumulation in Abca4−/− mouse model (Abca4−/− mice; present-tense example) | further results
significant serum RBP4 reduction | O=C(c1n[nH]c2c1CNCC2)N1CCC(c2ccc(F)c(F)c2C(F)(F)F)CC1 [Compound 36, (4-(3,4-Difluoro-2-(trifluoromethyl)phenyl)piperidin-1-yl)(4,5,6,7-tetrahydro-1H-pyrazolo[4,3-c]pyridin-3-yl)methanone Trifluoroacetic Acid Salt] | inhibit bisretinoid accumulation | –
significant serum RBP4 reduction | O=C(c1n[nH]c2c1CCNC2)N1CCC(c2cccc(F)c2C(F)(F)F)CC1 [Compound 30, (4-(3-Fluoro-2-(trifluoromethyl)phenyl)piperidin-1-yl) (4,5,6,7-tetrahydro-1H-pyrazolo[3,4-c]pyridin-3-yl)methanone Hydrochloride] | inhibit bisretinoid accumulation | –
significant serum RBP4 reduction | O=C(c1n[nH]c2c1CNC2)N1CCC(c2ccc(F)c(F)c2C(F)(F)F)CC1 [Compound 38, (4-(3,4-Difluoro-2-(trifluoromethyl)phenyl)piperidin-1-yl)(1,4,5,6-tetrahydropyrrolo[3,4-c]pyrazol-3-yl)methanone Hydrochloride] | inhibit bisretinoid accumulation | –
significant serum RBP4 reduction | O=C(c1n[nH]c2c1CCNC2)N1CCC(c2cccc(F)c2Cl)CC1 [Compound 40, (4-(2-Chloro-3-fluorophenyl)piperidin-1-yl) (4,5,6,7-tetrahydro-1H-pyrazolo[3,4-c]pyridin-3-yl)methanone Hydrochloride] | inhibit bisretinoid accumulation | –
significant serum RBP4 reduction | O=C(c1n[nH]c2c1CCNC2)N1CCC(c2ccc(F)c(F)c2C(F)(F)F)CC1 [Compound 34] | inhibit bisretinoid accumulation | –
